The text below walks through data of US20160045482A1, “UREIDO-PYRAZOLE DERIVATIVES” (Respivert Limited, priority 2010, published 2016).

In experiment [1] the test system is IRF-3. The experiment can be described thus: HRV-16 induced activation of IRF-3 in BEAS2B cells. It is filed as cell-based, human. The settings on record: after 2 hr, at 10 MOI. The procedure: (§1) The cells were then collected by scraping on ice and nuclear extracts were prepared using a nuclear protein extraction kit (ActiveMotif, […], Belgium). NFκB activity and IRF3 activity were then measured using the TransAMTM NFκB (p65) ELISA kit or the TransAMTM IRF3 ELISA kit.

In experiment [2] the test system is NFκB. Briefly: HRV-16 induced activation of NFκB in BEAS2B cells. The settings on record: after 2 hr, at 10 MOI. It is filed as cell-based, human. As to the method: as §1
In experiment [3] the target is T1, p38MAPKα (Homo sapiens, UniProt Q16539).
T1 construct: purchased Invitrogen
T1 sequence (Q16539 whole entry): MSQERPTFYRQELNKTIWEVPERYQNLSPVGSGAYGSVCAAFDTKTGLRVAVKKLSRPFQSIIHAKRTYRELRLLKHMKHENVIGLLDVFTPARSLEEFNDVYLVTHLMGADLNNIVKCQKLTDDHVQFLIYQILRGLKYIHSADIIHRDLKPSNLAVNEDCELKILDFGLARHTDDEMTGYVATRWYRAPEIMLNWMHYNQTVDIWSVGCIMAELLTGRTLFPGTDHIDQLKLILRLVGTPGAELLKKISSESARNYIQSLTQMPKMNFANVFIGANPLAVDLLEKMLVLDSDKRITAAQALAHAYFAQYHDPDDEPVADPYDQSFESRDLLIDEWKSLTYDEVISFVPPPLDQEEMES
The experiment can be described thus: Kinase enzyme activity, FRET (Z-LYTE). It is filed as biochemical. The settings on record: 10 μM ATP, via MAPKAP-K2. As to the method: (§2) The enzyme inhibitory activity of test compounds was determined by fluorescence resonance energy transfer (FRET) using synthetic peptides labelled with both donor and acceptor fluorophores (Z-LYTE, Invitrogen). For p38 MAPK alpha (MAPK14: Invitrogen), enzyme activity was evaluated indirectly by determining the activation/phosphorylation of the down-stream molecule, MAPKAP-K2. The p38 MAPK a protein was mixed with the test compound for 2 hr at RT. MAPKAP-K2 (Invitrogen), the FRET peptide (2 μM), which is a phosphorylation target for MAPKAP-K2, and ATP (10 μM) were then added to the enzymes/compound mixture and incubated for 1 hr. Development reagent was added and the mixture incubated for 1 hr before detection by fluorescence completed the assay protocol. The enzymes HCK, c-SRC, and SYK were evaluated in a similar fashion. Each enzyme was incubated with the test compound for 2 hr at RT. […] After the development reagent was added the mixtures were incubated for 1 hr and the assay protocol was completed by detection of the fluorescence levels in a microplate reader.

Experiment [4] has as its target HCK (Homo sapiens, UniProt P08631). Briefly: Kinase enzyme activity, FRET (Z-LYTE). It is filed as biochemical. The settings on record: 15 μM ATP. As to the method: as §2
The subject of experiment [5] is IL-8. Briefly: HRV39-induced IL-8 release in air-liquid interface cultured nasal epithelial cells. It is filed as cell-based, human. The procedure:
(§3) Primary nasal epithelial cells, cultured using an air-liquid interface, were purchased from Epithelix Sarl (Geneva, Switzerland). Fresh, warmed media (200 μL) containing either the test compound at the selected concentration or vehicle (DMSO; final concentration of 0.5%) was transferred to the apical chamber, and fresh, warmed media (700 μL) containing either the test compound at the selected concentration or vehicle (DMSO; final concentration of 0.5%) were transferred to the bottom chamber. After incubation for 2 hr, the media in the upper well was removed carefully. The following day, fresh, warmed media (200 μL) containing either the test compound at the selected concentration or vehicle (DMSO; final concentration of 0.5%) was transferred to the apical chamber again, and after incubation for 2 hr, the media was removed. On the third day, cells were treated again for 2 hr, and the media was removed. […] IL-8 concentrations were determined using a Duoset ELISA development kit (R&D Systems, Minneapolis, Minn.; FIG. 3B). […] The resultant cytopathic effects (CPE) were assessed by visual inspection 5 days after infection. The amount of virus required to infect 50% of Hela cells was calculated for each treatment and is reported as log[TCID50] […]

The subject of experiment [6] is HRV16. Briefly: HRV-16 infection, assessment of virus load (TCID50) in MRC5 cells. It is filed as cell-based, human rhinovirus 16. Particulars: MRC5 cells, 0.1 MOI, total period of 84 hr.
Experiment [7] relates to HRV39. Briefly: HRV39 titres in MRC-5 cells. It is filed as cell-based, human rhinovirus. The settings on record: 0.1 or 10 MOI, 3 days, results not shown.
Experiment [8] relates to IL-8. The experiment can be described thus: IL-8 release activated by human rhinovirus in BEAS2B cells. Particulars: for IL-8 production in response to inoculation using HRV-16: epithelial cells. It is filed as cell-based. The procedure: BEAS2B cells were infected with rhinovirus at an MOI of 5 and incubated for 2 hr at 33° C. with gentle shaking to enhance adsorption. Test compounds were added 2 hr before HRV infection and 2 hr after infection when residual extracellular HRV was washed out. The cells were then washed with PBS, fresh media was added and the cells were incubated for a further 72 hr. The supernatant was collected for assay of IL-8 concentrations using the Duoset ELISA development kit (R&D Systems, Minneapolis, Minn.).

In experiment [9] the test system is HRV1B. Briefly: HRV1B titres in MRC-5 cells. It is filed as cell-based, human rhinovirus. The settings on record: 0.1 or 10 MOI, 3 days, results not shown.
For experiment [10], the system named is HRV39. Briefly: HRV-39 viral load in air-liquid interface cultured nasal epithelial cells. It is filed as cell-based, human rhinovirus. The procedure:
as §3

In experiment [11] the test system is ICAM-1. Briefly: ICAM1 expression activated by human rhinovirus in BEAS2B cells (cell-based ELISA). Particulars: for ICAM-1 expression induced by HRV16 inoculation (in words): 2 hr infection. As to the method: BEAS2B cells were infected with rhinovirus at an MOI of 5 and incubated for 2 hr at 33° C. with gentle shaking to enhance adsorption. Test compounds were added 2 hr before HRV infection and 2 hr after infection when residual extracellular HRV was washed out. The cells were then washed with PBS, fresh media was added and the cells were incubated for a further 72 hr. The supernatant was collected for assay of IL-8 concentrations using the Duoset ELISA development kit (R&D Systems, Minneapolis, Minn.). […] After appropriate incubation, cells were fixed with 4% formaldehyde in PBS. After quenching endogenous peroxidase by adding 0.1% sodium azide and 1% hydrogen peroxide, wells were washed with buffer (0.05% Tween in PBS: PBS-Tween). After incubation with the blocking solution (5% milk in PBS-Tween for 1 hr), cells were incubated with anti-human ICAM-1 antibody in 5% BSA PBS-Tween (1:500) overnight. Wells were then washed with PBS-Tween and incubated with the secondary antibody (HRP-conjugated anti-rabbit IgG, Dako Ltd.).
(ELISA stands for enzyme-linked immunosorbent assay.)

Experiment [12] relates to HRV16. The experiment can be described thus: HRV-16 infection, assessment of virus load (TCID50) in MRC5 cells. It is filed as cell-based, human rhinovirus 16. The settings on record: HRV16 0.1 MOI, 3 days. The procedure:
Human rhinovirus RV16 (HRV16) was obtained from the American Type Culture Collection (Manassas, Va.). Viral stocks were generated by infecting Hela cells with HRV until 80% of the cells were cytopathic. MRC5 cells (human lung fibroblast, ATCC) were infected at 0.1 MOI (multiplicity of infection of 0.1) of HRV16 and incubated for 1 hr at 33° C. with gentle shaking to stimulate adsorption. The cells were then washed with PBS, fresh media (DMEM-5% FCS) was added and the cells were incubated for a further 72 hr. Supernatant (20 μL) was collected and 10-fold serial dilutions were prepared with DMEM containing 1% FCS. All titrations were performed by infecting confluent Hela cell monolayers with serially diluted supernatant (10^−1-10^−5) and then the cytopathic effect at each dilution 3 days after infection assessed by visual inspection. The cells were then stained with Crystal Violet for confirmation. The amount of virus required to infect 50% of Hela cells was calculated in each treatment as TCID50 (50% tissue culture infectious dose, U(unit)/20 μL). Compounds were added 2 hr before HRV16 infection and 1 hr after infection when non-infected HRV was washed out.

In experiment [13] the test system is HRV16. The experiment can be described thus: Assessment of HRV16 induced CPE in MRC5. It is filed as cell-based, human rhinovirus 16. Particulars: Rhinovirus A. The procedure: The supernatants were aspirated and fresh media was added and the preparations were then incubated for 4 days. Where appropriate, cells were pre-incubated with the test compound or DMSO for 2 hr, and the compounds and DMSO added again after washout of the virus. Supernatants were aspirated and incubated with methylene blue solution (2% formaldehyde, 10% methanol and 0.175% Methylene Blue) for 2 hr at RT. After washing, 1% SDS was added to each well, and plates were shaken lightly for 1-2 hr prior to reading the absorbance at 660 nm. The percentage inhibition for each well was calculated. The IC50 value was calculated from the concentration-response curve generated from the serial dilutions of the test compound.

Experiment [14] addresses SYK (Homo sapiens, UniProt P43405). Briefly: Kinase enzyme activity, FRET (Z-LYTE). It is filed as biochemical. The settings on record: 15 μM ATP. As to the method:
as §2

Experiment [15] deals with HRV16 mRNA. The experiment can be described thus: Transcripts of HRV16 by PCR in MRC5 cellular extract. It is filed as cell-based, human rhinovirus 16. Particulars: MRC5 cells, HRV16 0.1 MOI, 3 days. The procedure:
(§4) The MRC5 cells infected with virus (as described above) were used for viral RNA or mRNA detection. Total RNA extraction and reverse transcription were performed using TaqMan®Fast Cells-to-CT™ Kit (Ambion Inc. Austin Tex.). The gene transcript level of HRV16 (PrimerDesign Ltd, Southampton, UK), IFN (Applied Biosystems, Warrington, UK) and GAPDH, as a house-keeping gene (PrimerDesign Ltd, Southampton, UK) were quantified by real-time PCR using commercially available primers on a StepOnePlus™ RT-PCR system (Applied Biosystems, Warrington, UK). Variations in cDNA concentrations between different samples were corrected using the housekeeping gene, whereby the GAPDH concentration in each cDNA sample was calculated, and the cDNA diluted to contain equal amounts of GAPDH. Standard curves for GAPDH were generated by performing a dilution series of the untreated control cDNA. The relative amount of gene transcript present after different treatments was calculated and normalized by dividing the calculated value for the gene of interest by that of the house-keeping gene value.

In experiment [16] the test system is interferon β. Briefly: Interferon β induction (mRNA) by HRV16 in MRC-5 cells, PCR. It is filed as cell-based, human. As to the method: as §4

“Also recorded” adds a separate entry of the source. Read-outs that look alike come from different tables or passages of the source.

The term IC50 denotes the concentration that inhibits the measured activity by half.

Chain of HCK (P08631 whole entry): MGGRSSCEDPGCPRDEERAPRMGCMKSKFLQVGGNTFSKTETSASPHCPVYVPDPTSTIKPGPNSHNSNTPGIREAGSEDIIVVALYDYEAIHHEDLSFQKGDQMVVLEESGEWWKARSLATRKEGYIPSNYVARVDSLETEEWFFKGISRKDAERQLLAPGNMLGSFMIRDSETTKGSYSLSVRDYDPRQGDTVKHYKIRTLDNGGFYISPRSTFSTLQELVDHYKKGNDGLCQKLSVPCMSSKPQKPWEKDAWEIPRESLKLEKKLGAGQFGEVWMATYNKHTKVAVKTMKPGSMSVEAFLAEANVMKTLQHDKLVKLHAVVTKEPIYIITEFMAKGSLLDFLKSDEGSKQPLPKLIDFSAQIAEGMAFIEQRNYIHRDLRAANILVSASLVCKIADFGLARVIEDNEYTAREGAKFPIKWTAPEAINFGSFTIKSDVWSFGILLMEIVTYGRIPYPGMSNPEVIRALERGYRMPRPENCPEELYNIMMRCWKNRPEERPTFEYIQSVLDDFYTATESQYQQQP

Consider `COc1ccc(-c2cc3nccn3c(Nc3ncccc3C(N)=O)n2)cc1OC` [BAY 61-3606], for which the “IRF-3 activation (HRV-16 induced)” value in experiment [1] is “tendency to inhibit”. The “NFκB activation (HRV-16 induced)” value in [2] is reported as “inhibited”. Besides, the IC50 in experiment [3] and in [4] was above 3310 nM throughout.

Turning to `COCC(=O)Nc1cc(COc2ccc(NC(=O)Nc3cc(C(C)(C)C)nn3-c3ccc(C)cc3)c3ccccc23)ccn1` [Reference Compound 1, N-[4-({4-[3-(3-tert-Butyl-1-p-tolyl-1H-pyrazol-5-yl)ureido]naphthalen-1-yloxy}methyl)pyridin-2-yl]-2-methoxyacetamide, reference compound], the “IL-8 production in response to inoculation using HRV39” value in experiment [5] is “marked inhibition”. Further, the “Activity versus extracellular HRV16 load, delaying treatment for 24-36 hr” value in experiment [6] is listed as “marked decrease in activity”. Besides, the “Activity versus extracellular HRV16 load, initial treatment” value in experiment [6] is listed as “marked activity”. Also, the HRV39 titres result in [7] is “little or no discernable effect”. Moreover, in experiment [1], the “IRF-3 activation (HRV-16 induced)” value is on record as “without effect; also recorded: No effect”. In addition, the IC50 in [8] (Homo sapiens, BEAS-2B, BEAS2B cells, MOI of 5, 72 hr, read-out: HRV16-induced IL-8 IC50 Value) was 0.001 µM; in experiment [11] (Homo sapiens, BEAS-2B, HRV16 inoculation (2 hr infection), read-out: HRV16-induced ICAM1 IC50 Value), above 1.69 µM; in experiment [13] (HRV16, MRC5, 96 h, read-out: HRV16-induced CPE IC50 Value (nM)), 340 nM; in experiment [14], above 17800 nM. The “IL-8 production in response to inoculation using HRV-16” value in experiment [8] is recorded as “marked inhibition”. Also, the HRV1B titres entry in experiment [9] is recorded as “little or no discernable effect”. Moreover, in [10], the “HRV39 extracellular virus load” value was “little effect”. Further, the “ICAM-1 expression induced by HRV16 inoculation (in words)” value in experiment [11] was “no effect”. The “HRV-16 virus load (extracellular)” value in experiment [12] is “modest effect; also recorded: Modest inhibition”. In addition, the “NFκB activation (HRV-16 induced)” value in [2] is listed as “some evidence of inhibition; also recorded: Modest inhibition”.

`COCC(=O)Nc1cc(Oc2ccc(NC(=O)Nc3cc(C(C)(C)C)nn3-c3ccc(C)cc3)c3ccccc23)ccn1` [Reference Compound 2, N-(4-(4-(3-(3-tert-Butyl-1-p-tolyl-1H-pyrazol-5-yl)ureido)naphthalen-1-yloxy)pyridin-2-yl)-2-methoxyacetamide]: the “IL-8 production in response to inoculation using HRV39” value in [5] was “marked inhibition”. Further, in experiment [15], the “HRV16 mRNA detected in cellular extracts” value is recorded as “potent inhibitor”. Besides, in experiment [16], the “Interferon β induction by HRV16” value is recorded as “marked increases”. Besides, in experiment [6], the “Activity versus extracellular HRV16 load, delaying treatment for 24-36 hr” value was “more sustained” and the “Activity versus extracellular HRV16 load, initial treatment” value was “marked activity”. Besides, the HRV39 titres entry in [7] is recorded as “potent inhibitor”. For the same molecule, in experiment [1], the “IRF-3 activation (HRV-16 induced)” value is recorded as “enhanced; also recorded: Activation”. In addition, in experiment [8], the “IL-8 production in response to inoculation using HRV-16” value is “marked inhibition”. For the same molecule, the HRV1B titres entry in experiment [9] was “potent inhibitor”. Moreover, the “HRV39 extracellular virus load” value in [10] was “potent inhibitor”. Moreover, the “ICAM-1 expression induced by HRV16 inoculation (in words)” value in experiment [11] is recorded as “remarkably potent inhibitory effect”. In addition, in experiment [12], the “HRV-16 virus load (extracellular)” value is on record as “potent inhibitor; also recorded: Marked inhibition”. Moreover, the “NFκB activation (HRV-16 induced)” value in experiment [2] was “inhibited; also recorded: Marked inhibition”. Besides, the IC50 in [13] (96 h, MRC5 cells, HRV16 MOI of 1, 4 days, read-out: HRV16-induced CPE IC50 Value) worked out at 4.7 nM.
